Assay results taken from the supplement of paper PMC8617591.

What was measured:
[1] = test system: Mycobacterium tuberculosis Erdman (autoluminescent); test: FIC90 (Loewe) at 90% inhibition (log2); higher = more antagonistic
Protocol: (§1)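 DiaMOND equipotent two-drug combination dose responses against autoluminescent M. tuberculosis Erdman in 8 in vitro models. Read-out is OD600, or luminescence for the intracellular and dormancy models, normalised to untreated wells. Hill-fit Einf, AUC25 and GRinf are potency metrics; FIC50 and FIC90 are Loewe-additivity fractional inhibitory concentrations, given as log2 (negative = synergy). Replicates are averaged.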

[2] = test system: Mycobacterium tuberculosis Erdman (autoluminescent); test: FIC50 (Loewe) at 50% inhibition (log2); higher = more antagonistic
Protocol: as §1

[3] = test system: Mycobacterium tuberculosis Erdman (autoluminescent); test: Einf, fitted maximum growth inhibition of combination (fraction); higher = stronger maximal inhibition
Protocol: as §1

[4] = test system: Mycobacterium tuberculosis Erdman (autoluminescent); test: AUC25, normalised area under dose response up to IC25 (fraction (0-1)); higher = more potent at low dose
Protocol: as §1

[5] = test system: Mycobacterium tuberculosis Erdman (autoluminescent); test: GRinf, maximum normalised growth rate inhibition (unitless (-1 to 1)); higher = less effect (negative = killing)
Protocol: as §1

CC(C)/N=c1\cc2n(-c3ccc(Cl)cc3)c3ccccc3nc-2cc1Nc1ccc(Cl)cc1 [clofazimine] + CO[C@H]1/C=C/O[C@@]2(C)Oc3c(C)c(O)c4c(O)c(c(/C=N/N5CCN(C6CCCC6)CC5)c(O)c4c3C2=O)NC(=O)/C(C)=C\C=C\[C@H](C)[C@H](O)[C@@H](C)[C@@H](O)[C@@H](C)[C@H](OC(C)=O)[C@@H]1C [rifapentine]
Conditions	AUC25, [4]	Einf, [3]	FIC50, [2]	FIC90, [1]	GRinf, [5]
in vitro model: acidic pH 5.7, time point: constant (~7 days, model-specific)	0.0913	0.879	0.0615	0.794	-0.198
in vitro model: acidic pH 5.7, time point: terminal (~4-5 doublings, model-specific)	0.0911	0.986	-0.0081	0.123	-0.304
in vitro model: intracellular J774, time point: constant = terminal	–	0.988	–	0.278	-0.308

Conditions	AUC25, [4]	Einf, [3]	FIC50, [2]	FIC90, [1]	GRinf, [5]
in vitro model: butyrate, time point: constant (~7 days, model-specific)	0.112	0.95	0.36	0.54	-0.0864
in vitro model: butyrate, time point: terminal (~4-5 doublings, model-specific)	0.0945	0.986	0.279	0.504	-0.0855
in vitro model: cholesterol 0.05 mM, time point: constant (~7 days, model-specific)	0.137	0.651	1.24	–	-0.17
in vitro model: cholesterol 0.05 mM, time point: terminal (~4-5 doublings, model-specific)	0.111	0.887	1.3	1.44	-0.127
in vitro model: cholesterol-high 0.2 mM, time point: constant (~7 days, model-specific)	0.102	0.924	0.657	1.06	-0.717
in vitro model: cholesterol-high 0.2 mM, time point: terminal (~4-5 doublings, model-specific)	0.0885	0.996	0.714	0.543	-0.813
in vitro model: dormancy (butyrate + nitrate, low O2), time point: constant (~7 days, model-specific)	0.0864	0.932	0.121	0.16	0.0493
in vitro model: dormancy (butyrate + nitrate, low O2), time point: terminal (~4-5 doublings, model-specific)	0.057	0.984	0.512	0.536	-0.373
in vitro model: standard 7H9 glycerol, time point: constant = terminal	0.1	0.967	0.18	0.35	-0.11
in vitro model: valerate, time point: constant (~7 days, model-specific)	0.136	0.885	0.297	–	-0.112
in vitro model: valerate, time point: terminal (~4-5 doublings, model-specific)	0.0746	0.918	0.0341	0.667	0.116

CC(C)/N=c1\cc2n(-c3ccc(Cl)cc3)c3ccccc3nc-2cc1Nc1ccc(Cl)cc1 [clofazimine] + CO[C@H]1/C=C/O[C@@]2(C)Oc3c(C)c(O)c4c(O)c(c(/C=N/N5CCN(C)CC5)c(O)c4c3C2=O)NC(=O)/C(C)=C\C=C\[C@H](C)[C@H](O)[C@@H](C)[C@@H](O)[C@@H](C)[C@H](OC(C)=O)[C@@H]1C [rifampicin]
Conditions	AUC25, [4]	Einf, [3]	FIC50, [2]	FIC90, [1]	GRinf, [5]
in vitro model: acidic pH 5.7, time point: constant (~7 days, model-specific)	0.0889	0.874	-0.0436	-1.95	-0.208
in vitro model: acidic pH 5.7, time point: terminal (~4-5 doublings, model-specific)	0.0797	0.986	0.0811	-0.172	-0.273
in vitro model: intracellular J774, time point: constant = terminal	–	0.967	–	0.0974	-0.265

Conditions	AUC25, [4]	Einf, [3]	FIC50, [2]	FIC90, [1]	GRinf, [5]
in vitro model: butyrate, time point: constant (~7 days, model-specific)	0.117	0.936	0.216	0.25	-0.0602
in vitro model: butyrate, time point: terminal (~4-5 doublings, model-specific)	0.104	0.979	0.0822	0.348	-0.0537
in vitro model: cholesterol 0.05 mM, time point: constant (~7 days, model-specific)	0.113	0.573	0.4	–	0.303
in vitro model: cholesterol 0.05 mM, time point: terminal (~4-5 doublings, model-specific)	0.0926	0.867	1.24	2.57	0.0118
in vitro model: cholesterol-high 0.2 mM, time point: constant (~7 days, model-specific)	0.0989	0.907	0.773	2.49	-0.497
in vitro model: cholesterol-high 0.2 mM, time point: terminal (~4-5 doublings, model-specific)	0.0908	1	1.01	0.724	-0.955
in vitro model: dormancy (butyrate + nitrate, low O2), time point: constant (~7 days, model-specific)	0.0883	0.893	0.2	-0.494	0.194
in vitro model: dormancy (butyrate + nitrate, low O2), time point: terminal (~4-5 doublings, model-specific)	0.062	0.97	0.0425	0.45	-0.059
in vitro model: standard 7H9 glycerol, time point: constant = terminal	0.103	0.935	-0.376	-0.394	0.00747
in vitro model: valerate, time point: constant (~7 days, model-specific)	0.119	0.907	0.421	–	-0.0677
in vitro model: valerate, time point: terminal (~4-5 doublings, model-specific)	0.0808	0.955	0.569	1.43	0.00769

CC(C)/N=c1\cc2n(-c3ccc(Cl)cc3)c3ccccc3nc-2cc1Nc1ccc(Cl)cc1 [clofazimine] + COc1c(N2C[C@@H]3CCCN[C@@H]3C2)c(F)cc2c(=O)c(C(=O)O)cn(C3CC3)c12 [moxifloxacin]
Conditions	AUC25, [4]	Einf, [3]	FIC50, [2]	FIC90, [1]	GRinf, [5]
in vitro model: acidic pH 5.7, time point: constant (~7 days, model-specific)	0.151	0.605	0.466	–	-0.0307
in vitro model: acidic pH 5.7, time point: terminal (~4-5 doublings, model-specific)	0.0976	0.937	0.107	0.181	-0.212
in vitro model: intracellular J774, time point: constant = terminal	–	0.953	–	0.341	-0.283

Conditions	AUC25, [4]	Einf, [3]	FIC50, [2]	FIC90, [1]	GRinf, [5]
in vitro model: butyrate, time point: constant (~7 days, model-specific)	0.109	0.955	0.486	1	-0.131
in vitro model: butyrate, time point: terminal (~4-5 doublings, model-specific)	0.0987	0.991	0.404	0.955	-0.125
in vitro model: cholesterol 0.05 mM, time point: constant (~7 days, model-specific)	0.153	0.711	0.262	–	-0.0492
in vitro model: cholesterol 0.05 mM, time point: terminal (~4-5 doublings, model-specific)	0.119	0.905	0.647	-0.276	-0.105
in vitro model: cholesterol-high 0.2 mM, time point: constant (~7 days, model-specific)	0.131	0.944	0.132	1.06	-0.922
in vitro model: cholesterol-high 0.2 mM, time point: terminal (~4-5 doublings, model-specific)	0.113	1	0.0758	0.41	-0.95
in vitro model: dormancy (butyrate + nitrate, low O2), time point: constant (~7 days, model-specific)	0.109	0.931	0.299	0.00346	-0.049
in vitro model: dormancy (butyrate + nitrate, low O2), time point: terminal (~4-5 doublings, model-specific)	0.0647	0.98	0.666	0.72	-0.241
in vitro model: standard 7H9 glycerol, time point: constant = terminal	0.109	0.971	0.11	0.558	-0.193
in vitro model: valerate, time point: constant (~7 days, model-specific)	0.139	0.895	-0.0703	–	-0.179
in vitro model: valerate, time point: terminal (~4-5 doublings, model-specific)	0.0871	0.941	0.137	0.7	-0.0272

CC(C)/N=c1\cc2n(-c3ccc(Cl)cc3)c3ccccc3nc-2cc1Nc1ccc(Cl)cc1 [clofazimine] + NC(=O)c1cnccn1 [pyrazinamide]
Conditions	AUC25, [4]	Einf, [3]	FIC50, [2]	FIC90, [1]	GRinf, [5]
in vitro model: acidic pH 5.7, time point: constant (~7 days, model-specific)	0.0987	0.807	-0.0856	–	-0.109
in vitro model: acidic pH 5.7, time point: terminal (~4-5 doublings, model-specific)	0.106	0.98	-0.519	-0.794	-0.397
in vitro model: intracellular J774, time point: constant = terminal	–	0.996	–	0.158	-0.38

Conditions	AUC25, [4]	Einf, [3]	FIC50, [2]	FIC90, [1]	GRinf, [5]
in vitro model: butyrate, time point: constant (~7 days, model-specific)	0.116	0.922	-0.639	0.884	-0.0318
in vitro model: butyrate, time point: terminal (~4-5 doublings, model-specific)	0.0881	0.958	-0.58	-0.361	-0.00889
in vitro model: cholesterol 0.05 mM, time point: constant (~7 days, model-specific)	0.146	0.653	–	–	-0.153
in vitro model: cholesterol 0.05 mM, time point: terminal (~4-5 doublings, model-specific)	0.143	0.923	0.474	–	-0.338
in vitro model: cholesterol-high 0.2 mM, time point: constant (~7 days, model-specific)	0.116	0.896	0.166	–	-0.475
in vitro model: cholesterol-high 0.2 mM, time point: terminal (~4-5 doublings, model-specific)	0.0971	1	0.233	0.114	-0.881
in vitro model: dormancy (butyrate + nitrate, low O2), time point: constant (~7 days, model-specific)	0.12	0.935	-0.722	-0.326	-0.0386
in vitro model: dormancy (butyrate + nitrate, low O2), time point: terminal (~4-5 doublings, model-specific)	0.0754	0.989	-0.936	-0.669	-0.387
in vitro model: standard 7H9 glycerol, time point: constant = terminal	0.11	0.96	-0.68	–	-0.102
in vitro model: valerate, time point: constant (~7 days, model-specific)	0.143	0.885	-0.679	–	-0.366
in vitro model: valerate, time point: terminal (~4-5 doublings, model-specific)	0.0829	0.938	0.0438	0.152	0.0893
